Laboratory results: ChEMBL document CHEMBL3885881, “DrugMatrix”

Organism: Rattus norvegicus
Assay: DrugMatrix - Regimen: Daily Repeat
Format: toxicity, organism-based, Sprague-Dawley
Design: regimen Daily Repeat, gender Male, age 6-8 weeks
Details: in vivo, sc, 1.75 mg/kg, route mini-PUMP - SUBCUTANEOUS, dose level High, vehicle 100 % SALINE; for ABSOLUTE BASOPHIL / ABSOLUTE EOSINOPHIL / ABSOLUTE LYMPHOCYTE / ABSOLUTE MONOCYTE / ABSOLUTE SEGMENTED NEUTROPHIL / BASOPHIL / EOSINOPHIL / ERYTHROCYTE COUNT / HEMATOCRIT / HEMOGLOBIN / LEUKOCYTE COUNT / LYMPHOCYTE / MEAN CORPUSCULAR HEMOGLOBIN / MEAN CORPUSCULAR HEMOGLOBIN CONCENTRATION / MEAN CORPUSCULAR VOLUME / MONOCYTE / NEUTROPHIL / NUCLEATED RED BLOOD CELLS / PLATELET COUNT: tissue Blood; for ALANINE AMINOTRANSFERASE / ALBUMIN / ALKALINE PHOSPHATASE / ASPARTATE AMINOTRANSFERASE / BLOOD UREA NITROGEN / CARBON DIOXIDE / CHLORIDE / CHOLESTEROL / CREATININE / GLUCOSE / LACTATE DEHYDROGENASE / LIPASE / PHOSPHORUS / POTASSIUM / SODIUM / TOTAL BILIRUBIN / TOTAL PROTEIN / URIC ACID: tissue Plasma

NC[C@H](O)c1ccc(O)c(O)c1 [NOREPINEPHRINE] was tested, and the “ABSOLUTE BASOPHIL” value (72 h, time 3 day) was 0 CELLS/uL, the “ABSOLUTE EOSINOPHIL” value (72 h, time 3 day) was 0 CELLS/uL and the “ABSOLUTE LYMPHOCYTE” value (72 h, time 3 day) was 13450.33 CELLS/uL. The “ABSOLUTE MONOCYTE” value (72 h, time 3 day) was 275.33 CELLS/uL, the “ABSOLUTE SEGMENTED NEUTROPHIL” value (72 h, time 3 day) was 1174.33 CELLS/uL and the BASOPHIL (72 h, time 3 day) was 0%. The EOSINOPHIL (72 h, time 3 day) was 0%, the “ERYTHROCYTE COUNT” value (72 h, time 3 day) was 6.14 x10E6/uL and the HEMATOCRIT (72 h, time 3 day) was 36.87%. For the same molecule, the HEMOGLOBIN (72 h, time 3 day) was 13.53 G/DL, the “LEUKOCYTE COUNT” value (72 h, time 3 day) was 14.9 x10E3/uL and the LYMPHOCYTE (72 h, time 3 day) was 90.67%. The “MEAN CORPUSCULAR HEMOGLOBIN” value (72 h, time 3 day) was 22.03 pg, the “MEAN CORPUSCULAR HEMOGLOBIN CONCENTRATION” value (72 h, time 3 day) was 36.73 G/DL and the “MEAN CORPUSCULAR VOLUME” value (72 h, time 3 day) was 60 fL. For the same molecule, the MONOCYTE (72 h, time 3 day) was 2%, the NEUTROPHIL (72 h, time 3 day) was 7.33% and the “NUCLEATED RED BLOOD CELLS” value (72 h, time 3 day) was 0.33 /100WBC. For the same molecule, the “PLATELET COUNT” value (72 h, time 3 day) was 1242.33 x10E3/uL, the “ALANINE AMINOTRANSFERASE” value (72 h, time 3 day) was 42.67 u/L and the ALBUMIN (72 h, time 3 day) was 4.07 G/DL. The “ALKALINE PHOSPHATASE” value (72 h, time 3 day) was 322.67 u/L, the “ASPARTATE AMINOTRANSFERASE” value (72 h, time 3 day) was 89.33 u/L and the “BLOOD UREA NITROGEN” value (72 h, time 3 day) was 16.67 mg/dL. The “CARBON DIOXIDE” value (72 h, time 3 day) was 25 mmol/L, the CHLORIDE (72 h, time 3 day) was 104.33 MEQ/L and the CHOLESTEROL (72 h, time 3 day) was 72.67 mg/dL. The CREATININE (72 h, time 3 day) was 0.21 mg/dL, the GLUCOSE (72 h, time 3 day) was 169 mg/dL and the “LACTATE DEHYDROGENASE” value (72 h, time 3 day) was 701 u/L. The LIPASE (72 h, time 3 day) was 9.67 u/L, the PHOSPHORUS (72 h, time 3 day) was 11.73 mg/dL and the POTASSIUM (72 h, time 3 day) was 6.75 MEQ/L. For the same molecule, the SODIUM (72 h, time 3 day) was 150.2 MEQ/L, the “TOTAL BILIRUBIN” value (72 h, time 3 day) was 0.17 mg/dL and the “TOTAL PROTEIN” value (72 h, time 3 day) was 6.3 G/DL. The “URIC ACID” value (72 h, time 3 day) was 1.8 mg/dL, the “ABSOLUTE BASOPHIL” value (120 h, time 5 day) was 0 CELLS/uL and the “ABSOLUTE EOSINOPHIL” value (120 h, time 5 day) was 0 CELLS/uL. The “ABSOLUTE LYMPHOCYTE” value (120 h, time 5 day) was 12875 CELLS/uL, the “ABSOLUTE MONOCYTE” value (120 h, time 5 day) was 478 CELLS/uL and the “ABSOLUTE SEGMENTED NEUTROPHIL” value (120 h, time 5 day) was 2047 CELLS/uL. For the same molecule, the BASOPHIL (120 h, time 5 day) was 0%, the EOSINOPHIL (120 h, time 5 day) was 0% and the “ERYTHROCYTE COUNT” value (120 h, time 5 day) was 6.43 x10E6/uL. For the same molecule, the HEMATOCRIT (120 h, time 5 day) was 38.73%, the HEMOGLOBIN (120 h, time 5 day) was 14.3 G/DL and the “LEUKOCYTE COUNT” value (120 h, time 5 day) was 15.4 x10E3/uL. The LYMPHOCYTE (120 h, time 5 day) was 84.33%, the “MEAN CORPUSCULAR HEMOGLOBIN” value (120 h, time 5 day) was 22.23 pg and the “MEAN CORPUSCULAR HEMOGLOBIN CONCENTRATION” value (120 h, time 5 day) was 36.93 G/DL. The “MEAN CORPUSCULAR VOLUME” value (120 h, time 5 day) was 60.27 fL, the MONOCYTE (120 h, time 5 day) was 3% and the NEUTROPHIL (120 h, time 5 day) was 12.67%. For the same molecule, the “NUCLEATED RED BLOOD CELLS” value (120 h, time 5 day) was 0 /100WBC, the “PLATELET COUNT” value (120 h, time 5 day) was 1321.67 x10E3/uL and the “ALANINE AMINOTRANSFERASE” value (120 h, time 5 day) was 45 u/L. For the same molecule, the ALBUMIN (120 h, time 5 day) was 4.47 G/DL, the “ALKALINE PHOSPHATASE” value (120 h, time 5 day) was 289.33 u/L and the “ASPARTATE AMINOTRANSFERASE” value (120 h, time 5 day) was 74.33 u/L. The “BLOOD UREA NITROGEN” value (120 h, time 5 day) was 14.67 mg/dL, the “CARBON DIOXIDE” value (120 h, time 5 day) was 28 mmol/L and the CHLORIDE (120 h, time 5 day) was 103 MEQ/L. The CHOLESTEROL (120 h, time 5 day) was 70.67 mg/dL, the CREATININE (120 h, time 5 day) was 0.13 mg/dL and the GLUCOSE (120 h, time 5 day) was 203 mg/dL. The “LACTATE DEHYDROGENASE” value (120 h, time 5 day) was 122 u/L, the LIPASE (120 h, time 5 day) was 9.33 u/L and the PHOSPHORUS (120 h, time 5 day) was 12.63 mg/dL. For the same molecule, the POTASSIUM (120 h, time 5 day) was 6.59 MEQ/L, the SODIUM (120 h, time 5 day) was 150.5 MEQ/L and the “TOTAL BILIRUBIN” value (120 h, time 5 day) was 0.17 mg/dL. For the same molecule, the “TOTAL PROTEIN” value (120 h, time 5 day) was 6.8 G/DL, the “URIC ACID” value (120 h, time 5 day) was 2.17 mg/dL and the “ABSOLUTE BASOPHIL” value ([…], time 14 day) was 0 CELLS/uL. For the same molecule, the “ABSOLUTE EOSINOPHIL” value ([…], time 14 day) was 45.6 CELLS/uL, the “ABSOLUTE LYMPHOCYTE” value ([…], time 14 day) was 15398.2 CELLS/uL and the “ABSOLUTE MONOCYTE” value ([…], time 14 day) was 562 CELLS/uL. The “ABSOLUTE SEGMENTED NEUTROPHIL” value ([…], time 14 day) was 3234.2 CELLS/uL, the BASOPHIL ([…], time 14 day) was 0% and the EOSINOPHIL ([…], time 14 day) was 0.2%. The “ERYTHROCYTE COUNT” value ([…], time 14 day) was 6.59 x10E6/uL, the HEMATOCRIT ([…], time 14 day) was 38.5% and the HEMOGLOBIN ([…], time 14 day) was 14.08 G/DL. The “LEUKOCYTE COUNT” value ([…], time 14 day) was 19.24 x10E3/uL, the LYMPHOCYTE ([…], time 14 day) was 80.6% and the “MEAN CORPUSCULAR HEMOGLOBIN” value ([…], time 14 day) was 21.36 pg. For the same molecule, the “MEAN CORPUSCULAR HEMOGLOBIN CONCENTRATION” value ([…], time 14 day) was 36.56 G/DL, the “MEAN CORPUSCULAR VOLUME” value ([…], time 14 day) was 58.42 fL and the MONOCYTE ([…], time 14 day) was 3%. The NEUTROPHIL ([…], time 14 day) was 16.2%, the “NUCLEATED RED BLOOD CELLS” value ([…], time 14 day) was 0 /100WBC and the “PLATELET COUNT” value ([…], time 14 day) was 980.2 x10E3/uL. For the same molecule, the “ALANINE AMINOTRANSFERASE” value ([…], time 14 day) was 57.6 u/L, the ALBUMIN ([…], time 14 day) was 4.18 G/DL and the “ALKALINE PHOSPHATASE” value ([…], time 14 day) was 349 u/L. For the same molecule, the “ASPARTATE AMINOTRANSFERASE” value ([…], time 14 day) was 86 u/L, the “BLOOD UREA NITROGEN” value ([…], time 14 day) was 15.8 mg/dL and the “CARBON DIOXIDE” value ([…], time 14 day) was 30 mmol/L. For the same molecule, the CHLORIDE ([…], time 14 day) was 102.6 MEQ/L, the CHOLESTEROL ([…], time 14 day) was 72.4 mg/dL and the CREATININE ([…], time 14 day) was 0.22 mg/dL. The GLUCOSE ([…], time 14 day) was 187.4 mg/dL, the “LACTATE DEHYDROGENASE” value ([…], time 14 day) was 105.4 u/L and the LIPASE ([…], time 14 day) was 8.8 u/L. It also gave a PHOSPHORUS ([…], time 14 day) of 13.42 mg/dL, a POTASSIUM ([…], time 14 day) of 7.42 MEQ/L and an SODIUM ([…], time 14 day) of 147.96 MEQ/L. The “TOTAL BILIRUBIN” value ([…], time 14 day) was 0.16 mg/dL, the “TOTAL PROTEIN” value ([…], time 14 day) was 6.34 G/DL and the “URIC ACID” value ([…], time 14 day) was 2.42 mg/dL.
